ChEMBL document CHEMBL5724914, “Linking interpersonal differences in gut microbiota composition and drug biotransformation activity” (2024)

Legend:
[1] = human gut metagenome, 24 h, 2 µM
[2] = human gut metagenome, 24 h, 2 µM; remark: listed apart in the source
[3] = human gut metagenome, 24 h, 2 µM; remark: listed apart in the source
[4] = (§1) The drug is tested on Z-028 corresponding to mouse gut metagenome with ENA study accession number: PRJEB37062 and ENA sample accession number: ERS12561827 for biotransformation under anaerobic condition. The drug concentrations were measured over 9 timepoints collected between 0 and 24 hours of incubation by liquid-chromatography-coupled mass spectrometry (LC–MS); conditions: 2 µM
[5] = as §1, with “WLS-086” for “Z-028”, “human” for “mouse”, “ERS12561752” for “ERS12561827”; conditions: 2 µM
[6] = as §1, with “Z-003” for “Z-028”, “pig” for “mouse”, “ERS12561803” for “ERS12561827”; conditions: 2 µM
[7] = human gut metagenome, 24 h, 2 µM; remark: listed apart in the source
[8] = as §1, with “WLS-027” for “Z-028”, “human” for “mouse”, “ERS12561744” for “ERS12561827”; conditions: 2 µM
[9] = human gut metagenome, 24 h, 2 µM; remark: listed apart in the source
[10] = human gut metagenome, 24 h, 2 µM; remark: listed apart in the source
[11] = as §1, with “Z-022” for “Z-028”, “ERS12561821” for “ERS12561827”; conditions: 2 µM
[12] = as §1, with “WLS-220” for “Z-028”, “human” for “mouse”, “ERS12561769” for “ERS12561827”; conditions: 2 µM
[13] = human gut metagenome, 24 h, 2 µM; remark: listed apart in the source
[14] = as §1, with “Z-007” for “Z-028”, “rat” for “mouse”, “ERS12561807” for “ERS12561827”; conditions: 2 µM
[15] = as §1, with “Z-004” for “Z-028”, “to” for “to mouse gut”, “ERS12561804” for “ERS12561827”; conditions: 2 µM
[16] = as §1, with “Z-011” for “Z-028”, “ERS12561811” for “ERS12561827”; conditions: 2 µM
[17] = human gut metagenome, 24 h, 2 µM; remark: listed apart in the source
[18] = as §1, with “WLS-170” for “Z-028”, “human” for “mouse”, “ERS12561762” for “ERS12561827”; conditions: 2 µM
[19] = as §1, with “WLS-069” for “Z-028”, “human” for “mouse”, “ERS12561748” for “ERS12561827”; conditions: 2 µM
[20] = as §1, with “Z-018” for “Z-028”, “pig” for “mouse”, “ERS12561817” for “ERS12561827”; conditions: 2 µM
Also: call rule not given here.

SMILES	Bacterial Biotransformation [1]	Bacterial Biotransformation [2]	Bacterial Biotransformation [3]	Bacterial Biotransformation [4]	Bacterial Biotransformation [5]	Bacterial Biotransformation [6]	Bacterial Biotransformation [7]	Bacterial Biotransformation [8]	Bacterial Biotransformation [9]	Bacterial Biotransformation [10]	Bacterial Biotransformation [11]	Bacterial Biotransformation [12]	Bacterial Biotransformation [13]	Bacterial Biotransformation [14]	Bacterial Biotransformation [15]	Bacterial Biotransformation [16]	Bacterial Biotransformation [17]	Bacterial Biotransformation [18]	Bacterial Biotransformation [19]	Bacterial Biotransformation [20]
C[C@@H](CO)NC(=O)[C@@H]1C=C2c3cccc4[nH]cc(c34)C[C@H]2N(C)C1.O=C(O)/C=C\C(=O)O [ERGONOVINE MALEATE]	Compound NOT metabolized	Compound metabolized	Compound metabolized	Compound NOT metabolized	Compound metabolized	Compound NOT metabolized	Compound NOT metabolized	Compound metabolized	Compound metabolized	Compound metabolized	Compound NOT metabolized	Compound NOT metabolized	Compound metabolized	Compound NOT metabolized	Compound NOT metabolized	Compound NOT metabolized	Compound metabolized	Compound metabolized	Compound metabolized	Compound metabolized
CCN(CC)C(C)CN1c2ccccc2Sc2ccccc21 (stereo not given) [ETHOPROPAZINE]	Compound metabolized	Compound metabolized	Compound metabolized	Compound NOT metabolized	Compound metabolized	Compound metabolized	Compound NOT metabolized	Compound metabolized	Compound metabolized	Compound metabolized	Compound NOT metabolized	Compound metabolized	Compound metabolized	Compound NOT metabolized	Compound metabolized	Compound NOT metabolized	Compound metabolized	Compound metabolized	Compound metabolized	Compound metabolized
Cc1nc(-c2ccc(OCC(C)C)c(C#N)c2)sc1C(=O)O [FEBUXOSTAT]	Compound metabolized	Compound NOT metabolized	Compound metabolized	Compound metabolized	Compound metabolized	Compound metabolized	Compound metabolized	Compound metabolized	Compound metabolized	Compound metabolized	Compound metabolized	Compound metabolized	Compound metabolized	Compound NOT metabolized	Compound NOT metabolized	Compound NOT metabolized	Compound metabolized	Compound metabolized	Compound metabolized	Compound metabolized
CC(C)(C(=O)O)c1ccc(C(O)CCCN2CCC(C(O)(c3ccccc3)c3ccccc3)CC2)cc1 (stereo not given) [FEXOFENADINE]	Compound NOT metabolized	Compound NOT metabolized	Compound NOT metabolized	Compound NOT metabolized	Compound NOT metabolized	Compound NOT metabolized	Compound NOT metabolized	Compound NOT metabolized	Compound NOT metabolized	Compound NOT metabolized	Compound NOT metabolized	Compound NOT metabolized	Compound NOT metabolized	Compound NOT metabolized	Compound NOT metabolized	Compound NOT metabolized	Compound NOT metabolized	Compound NOT metabolized	Compound NOT metabolized	Compound NOT metabolized
OCCN1CCN(CCCN2c3ccccc3Sc3ccc(C(F)(F)F)cc32)CC1 [FLUPHENAZINE]	Compound metabolized	Compound metabolized	Compound NOT metabolized	Compound metabolized	Compound metabolized	Compound metabolized	Compound NOT metabolized	Compound metabolized	Compound metabolized	Compound metabolized	Compound metabolized	Compound metabolized	Compound metabolized	Compound NOT metabolized	Compound metabolized	Compound metabolized	Compound metabolized	Compound metabolized	Compound metabolized	Compound NOT metabolized
COc1ccc2c3c1O[C@H]1C[C@@H](O)C=C[C@@]31CCN(C)C2 [GALANTAMINE]	Compound NOT metabolized	Compound NOT metabolized	Compound NOT metabolized	Compound NOT metabolized	Compound metabolized	Compound NOT metabolized	Compound NOT metabolized	Compound NOT metabolized	Compound metabolized	Compound NOT metabolized	Compound NOT metabolized	Compound metabolized	Compound NOT metabolized	Compound NOT metabolized	Compound NOT metabolized	Compound NOT metabolized	Compound metabolized	Compound metabolized	Compound NOT metabolized	Compound NOT metabolized
Cc1ccc(S(=O)(=O)NC(=O)NN2CC3CCCC3C2)cc1 (stereo not given) [GLICLAZIDE]	Compound metabolized	Compound metabolized	Compound metabolized	Compound metabolized	Compound metabolized	Compound metabolized	Compound NOT metabolized	Compound metabolized	Compound metabolized	Compound metabolized	Compound metabolized	Compound metabolized	Compound metabolized	Compound NOT metabolized	Compound NOT metabolized	Compound metabolized	Compound metabolized	Compound metabolized	Compound metabolized	Compound metabolized
COC1=CC(=O)C[C@@H](C)[C@]12Oc1c(Cl)c(OC)cc(OC)c1C2=O [GRISEOFULVIN]	Compound metabolized	Compound metabolized	Compound NOT metabolized	Compound metabolized	Compound metabolized	Compound metabolized	Compound metabolized	Compound metabolized	Compound metabolized	Compound metabolized	Compound metabolized	Compound metabolized	Compound metabolized	Compound metabolized	Compound metabolized	Compound metabolized	Compound metabolized	Compound metabolized	Compound metabolized	Compound metabolized
